Experimental data published in the OPERA property sets (Mansouri et al. 2018).

logP | Compound
1.04 | CC(C)(O)C(F)(F)F
0.9 | OCCCC(F)(F)F
1.7 | CCC(O)CCC(F)(F)F (stereo not given)
1.61 | CC(CCO)CC(F)(F)F (stereo not given)
1.39 | CC(CO)CC(F)(F)F (stereo not given)
0.39 | OCCC(F)(F)F
1.64 | OCCCCCC(F)(F)F
1.15 | OCCCCC(F)(F)F
0.71 | CC(O)CC(F)(F)F (stereo not given)
1.37 | CC(CCO)C(F)(F)F (stereo not given)
